The values below come from publication PMC12264943, “Identification of New Human P2X7 Antagonists Using Ligand- and Structure-Based Virtual Screening” (Journal of Chemical Information and Modeling, 2025).

For orientation: EC50 means the midpoint of the concentration-response curve. A word on the IC50: it is the concentration needed to halve the response being measured.

One series deals with T1, hP2X7 (Homo sapiens, UniProt Q99572).
T1 construct: expressed in transfected cells; host or cells: HEK-293, stably transfected (gift of E. Adinolfi's group, Ferrara University)
T1 sequence (Q99572 1-595): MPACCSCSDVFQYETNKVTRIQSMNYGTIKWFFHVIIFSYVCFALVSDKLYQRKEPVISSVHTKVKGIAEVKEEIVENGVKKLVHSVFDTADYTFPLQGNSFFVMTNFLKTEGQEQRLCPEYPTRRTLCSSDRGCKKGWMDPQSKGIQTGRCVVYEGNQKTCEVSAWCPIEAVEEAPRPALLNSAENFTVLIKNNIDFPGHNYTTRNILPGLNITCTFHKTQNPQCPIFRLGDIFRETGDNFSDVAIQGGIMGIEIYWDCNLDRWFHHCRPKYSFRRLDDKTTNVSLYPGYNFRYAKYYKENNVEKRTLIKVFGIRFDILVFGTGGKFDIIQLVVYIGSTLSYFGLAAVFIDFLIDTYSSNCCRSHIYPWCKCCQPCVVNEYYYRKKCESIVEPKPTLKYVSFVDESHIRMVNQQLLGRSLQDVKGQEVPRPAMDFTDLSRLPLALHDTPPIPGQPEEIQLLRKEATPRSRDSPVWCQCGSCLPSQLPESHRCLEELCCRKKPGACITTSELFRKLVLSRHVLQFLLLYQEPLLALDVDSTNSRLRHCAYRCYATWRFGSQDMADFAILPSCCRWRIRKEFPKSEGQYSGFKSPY
Briefly: YO-PRO 1 dye uptake assay, HEK-293 cells stably transfected with hP2X7. The format is cell-based. Particulars: for EC50: read-out: ATP EC50. Here is the method:
Astrocytoma 1321 N1 (established by Dr. Gaia Pasqualetto) and HEK-293 (kindly gifted by E. Adinolfi’s group, Ferrara University) both stably transfected with hP2X7, were used to assess the activity of the small molecules selected from the VS. Cells were maintained in DMEM:F12 (PanBiotech) supplemented with 10% FBS, 1% pen-strep, and 150 μg/mL G418 (PanBiotech).
Astrocytoma 1321 N1 cells (2–2.5 × 10^4 cells/well) and HEK-293 cells (4–5 × 10^4 cells/well) expressing hP2X7 were seeded in poly-L-lysine-coated 96-well plates (Sarstedt) 24 h before the experiment. YO-PRO 1 dye was prepared at 5 μM in extracellular solution with low divalent cations (ECS-LD) buffer (147 mM NaCl, 10 mM HEPES, 13 mM glucose, 0.2 mM CaCl2, 2 mM KCl, pH 7.4) and added to cells after washing them with Dulbecco’s phosphate- buffered saline (DPBS) (PanBiotech) and incubated for 20 min at 37 °C. ATP-induced dye uptake, mediated by hP2X7 activation, was monitored using a Clariostar plate reader (excitation: 485 nm; emission: 538 nm) for 30 cycles (75–150 s/cycle), after recording the baseline for five cycles. hP2X7 activation was quantified at cycle 10 by calculating the fluorescence intensity (FI) ratio (Δ(Fcycle 10–F cycle 1)/cycle time).
Compounds 2 and 9, identified as hits, were further evaluated for concentration-dependent inhibition (IC50) of hP2X7 activation in the YO-PRO 1 dye uptake assay using HEK-293 cells stably transfected with hP2X7 (unfortunately, at this point in the study, the stably transfected 1321N1 cells lost P2X7 expression, and we were unable to recover them from frozen aliquots), for which the ATP EC50 was determined to be approximately 1 mM (Supporting material Figure 4C). Seven concentrations (100 to 0.03 μM) were tested, but due to precipitation at 100 μM, the DMSO concentration was increased to 1%.
3 Inhibitory concentration response evaluation of compounds 2 and 9 and their groups highlighted for SAR. […] Compound activity was evaluated along a time of 20 min (75 s per cycle) after ATP addition (700 μM). The fluorescence intensity (FI) values of the first 10 cycles were considered for assessing their ability to inhibit hP2X7. The curves represent three biological replicates (n = 4 per replicate). Data were normalized by setting as 100% the FI recorded by hP2X7 HEK-293 cells incubated in 1% DMSO and stimulated by ATP, and as 0% the FI recorded by the same cells but treated with ECS-LD (assay buffer). (C) Highlighted areas of compound 2 considered for SAR study. R1 refers to the ethyl-benzyl group of the molecules, and R2 and R3 refer to the benzo-(1,3)-dioxol groups. (D) Highlighted areas of compound 9 considered for SAR study. We have defined the area highlighted in yellow and numbered as 1 as the “front” region of the molecule and the one colored in pink and named as 2 as the “back” region of the molecule. L highlights the urea and amide linkers of compounds 2 and 9, respectively.
4 Evaluation of compound 2 and 9 analogue activity using YO-PRO 1 and MPR assays. The activity of compound 2 (A and B) and 9 (C and D) analogues was evaluated in YO-PRO 1 (A and C) and MPR (B and D) assays. The compounds were tested at 10 μM and preincubated for either 20 (YO-PRO 1) or 30 min (MPR). The baseline was recorded for 5 cycles before ATP treatment (1 mM). Fluorescence was recorded for 25 (YO-PRO 1) or 5 min (MPR). The data were normalized by setting as 100% for the fluorescence measured from hP2X7 HEK-293 cells incubated with vehicle (0.1% DMSO) and treated with 1 mM ATP and 0% for the fluorescence recorded by the cells not treated with ATP. The data shown correspond to three independent biological replicates (3 technical replicates per experiment; error bars represent the SEM from the mean values of each biological replicate (n = 3)). The statistical analysis was performed with one-way Anova using Dunnett’s function (P**** < 0.0001; P*** < 0.0003; P** < 0.002; P* < 0.02).

The test system of another series is HEK-293 WT cells. Briefly: Cytotoxicity assay (CellTiter Blue). The format is cell-based. Particulars: 10 μM, 24 h, nontransfected HEK-293 cells. Here is the method: HEK-293 WT cells were seeded at 4 × 10^4 cells/well in 96-well plates precoated with poly-L-lysine. After 24 h, the cells were washed with DPBS and treated with test compounds (10 μM) in 2% FBS-containing medium for 24 h. After this, the medium containing the test compounds was replaced with 20% CellTiter-Blue reagent (Promega) in 2% FBS medium. After a 2-h incubation, fluorescence (excitation: […]; emission: […]) was measured using a Clariostar plate reader. Data were normalized to untreated control cells (100%) and wells without cells (0%).
5 Concentration inhibition curve determination for compound 2g (A) and evaluation of cytotoxicity for compounds 2, 9, and 2g. […] The data on the graph represent the mean from three independent experiments (n = 3 replicates per experiment). (B) The cytotoxicity of the compounds was evaluated on nontransfected HEK-293 cells using a CellTiter Blue assay. The cells were incubated for 24 h with the compounds at 10 μM. The fluorescent signal obtained from vehicle-treated cells (0.1% DMSO) was used to normalize the data to 100%, and the one obtained from wells not containing cells (BLANK) was set as 0%. The data are the combination of three biological replicates (error bars represent the SEM (n = 3)) analyzed by one-way ANOVA using Dunnet’s function (P**** < 0.0001; **< 0.002; * < 0.02; ns, non significant).
The potential cytotoxicity of the hit compounds identified, 2, 9, and 2g, was assessed at 10 μM by CellTiter Blue assay using nontransfected HEK-293 cells (Figure B).

[1] abbreviates: YO-PRO 1 uptake, HEK-293 hP2X7 cells.
Setting [2] is: Table 1, table names no assay, values of 2 and 9 are from YO-PRO 1 dye uptake in hP2X7 HEK-293 cells, read-out: IC50.

Molecules are shown by their SMILES. Where two headings read alike, the source gives them in different places.

As to `Nc1ncnc2c1ncn2[C@@H]1O[C@H](COP(=O)(O)OP(=O)(O)OP(=O)(O)O)[C@@H](O)[C@H]1O` [ATP, reference compound], at hP2X7 (setting [1]), the “Hill Slope of ATP concentration-response curve” value was 1.397 and the EC50 came to 1140 ± 239 µM. For the same compound, the EC50 at hP2X7 (YO-PRO 1 uptake, HEK-293 hP2X7 cells, approximate value) is roughly 1000 µM.
On to `O=C(NCCc1ccccc1)NC(Cc1ccc2c(c1)OCO2)Cc1ccc2c(c1)OCO2` [Compound 2], for which the concentration for half-maximal inhibition (IC50) came out at 1.88 µM at hP2X7 (setting [2]) and 1.87 µM at hP2X7 (YO-PRO 1 dye uptake, hP2X7 HEK-293 cells, 100 to 0.03 μM, 1% DMSO, read-out: IC50, inhibition of hP2X7 activation). In addition, the “reduction in cell viability” value with HEK-293 WT cells is on record as roughly 10%.
`O=C(CSc1ccccc1C(=O)Nc1ccnn1Cc1cccnc1)Nc1ccc2c(c1)OCO2` [Compound 9]: the IC50 on hP2X7 (setting [2]) was found to be 6.82 µM. The “reduction in cell viability” value in the series with HEK-293 WT cells was “no significant reduction in cell viability”.
